According to ChEMBL document CHEMBL4390692, “Enzymatic activation of indolequinone-substituted 5-fluorodeoxyuridine prodrugs in hypoxic cells” (Bioorg Med Chem Lett, 2019):
Activity calls are given as the source filed them. The rule behind the calls is not given here.

Tests used:
[1] = molecular target: T1, NADPH--cytochrome P450 reductase (Homo sapiens, UniProt P16435); assay: Prodrug activation in pH 7.4 PBS buffer assessed as 3.3 ug/mL NADPH-cytochrome P450 reductase (unknown origin) mediated FdUrd formation at 0.62 mM in the presence of beta-NADPH measured after 2 hrs under hypoxic condition by reverse phase HPLC relative to control; assay type: ADME; settings: pH 7.4, 2 h, 620 µM
T1 sequence (P16435 whole entry): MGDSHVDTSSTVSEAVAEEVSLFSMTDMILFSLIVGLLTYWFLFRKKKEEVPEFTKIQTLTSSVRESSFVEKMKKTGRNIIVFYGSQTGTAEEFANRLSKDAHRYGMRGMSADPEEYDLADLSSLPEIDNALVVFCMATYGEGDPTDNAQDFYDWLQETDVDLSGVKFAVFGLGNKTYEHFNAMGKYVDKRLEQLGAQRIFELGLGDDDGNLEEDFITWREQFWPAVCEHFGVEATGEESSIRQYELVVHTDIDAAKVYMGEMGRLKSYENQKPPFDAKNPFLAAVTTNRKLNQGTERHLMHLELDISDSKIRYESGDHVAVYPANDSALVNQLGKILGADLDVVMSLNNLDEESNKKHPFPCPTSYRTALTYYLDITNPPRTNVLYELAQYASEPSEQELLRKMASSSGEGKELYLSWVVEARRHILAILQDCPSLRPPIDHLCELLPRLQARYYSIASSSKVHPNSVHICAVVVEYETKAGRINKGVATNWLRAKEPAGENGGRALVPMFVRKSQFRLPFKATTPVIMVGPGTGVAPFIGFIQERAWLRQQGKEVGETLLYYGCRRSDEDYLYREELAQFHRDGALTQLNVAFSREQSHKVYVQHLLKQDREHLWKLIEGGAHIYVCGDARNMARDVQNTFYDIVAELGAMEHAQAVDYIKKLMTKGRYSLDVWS

[2] = molecular target: T1, NADPH--cytochrome P450 reductase; assay: Prodrug activation in pH 7.4 PBS buffer assessed as 3.3 ug/mL NADPH-cytochrome P450 reductase (unknown origin) mediated FdUrd formation at 0.62 mM in the presence of beta-NADPH measured after 2 hrs under aerobic condition by reverse phase HPLC; assay type: ADME; settings: pH 7.4, 2 h, 620 µM
[3] = system: A549; assay: Cytotoxicity against human A549 cells at 1 to 50 uM treated 24 hrs post hypoxic condition measured after 72 hrs under hypoxic condition by WST-8 assay relative to control; assay type: functional, cell-based
[4] = system: A549; assay: Cytotoxicity against human A549 cells at 1 uM treated 24 hrs post aerobic condition and measured after 72 hrs under aerobic condition by WST-8 assay relative to control; assay type: cell-based; settings: a549, 72 h
[5] = substrate: COC1=CC(=O)c2c(c(Cn3c(=O)c(F)cn([C@H]4C[C@H](O)[C@@H](CO)O4)c3=O)c(C)n2C)C1=O; assay: Prodrug conversion in pH 7.4 PBS buffer assessed as NADPH-cytochrome P450 reductase (unknown origin) mediated FdUrd release by measuring Km at 0.62 mM in the presence of beta-NADPH measured after 2 hrs under hypoxic condition by Lineweaver-Burk plot analysis; assay type: ADME, Homo sapiens
[6] = substrate: COC1=CC(=O)c2c(c(Cn3c(=O)c(F)cn([C@H]4C[C@H](O)[C@@H](CO)O4)c3=O)c(C)n2C)C1=O; assay: Prodrug conversion in pH 7.4 PBS buffer assessed as NADPH-cytochrome P450 reductase (unknown origin) mediated FdUrd release by measuring Km at 0.62 mM in the presence of beta-NADPH measured after 2 hrs under aerobic condition by Lineweaver-Burk plot analysis; assay type: ADME, Homo sapiens

`CNC1=CC(=O)c2c(c(Cn3c(=O)c(F)cn([C@H]4C[C@H](O)[C@@H](CO)O4)c3=O)c(C)n2C)C1=O` was tested, and the Drug metabolism [1] was “Metabolite_Notdetected”.

`COC1=CC(=O)c2c(c(Cn3c(=O)c(F)cn([C@H]4C[C@H](O)[C@@H](CO)O4)c3=O)c(C)n2C)C1=O` was tested, and the Drug metabolism [2] was “Metabolite_Notdetected”, the Activity [3] was “Active” and the Activity [4] was “Non-Toxic”.

In the case of `O=c1[nH]c(=O)n([C@H]2C[C@H](O)[C@@H](CO)O2)cc1F` [FLOXURIDINE], the Activity [4] is reported as “Toxic”.

B1: NADPH--cytochrome P450 reductase (Homo sapiens) (protein)
chain: MGDSHVDTSSTVSEAVAEEVSLFSMTDMILFSLIVGLLTYWFLFRKKKEEVPEFTKIQTLTSSVRESSFVEKMKKTGRNIIVFYGSQTGTAEEFANRLSKDAHRYGMRGMSADPEEYDLADLSSLPEIDNALVVFCMATYGEGDPTDNAQDFYDWLQETDVDLSGVKFAVFGLGNKTYEHFNAMGKYVDKRLEQLGAQRIFELGLGDDDGNLEEDFITWREQFWPAVCEHFGVEATGEESSIRQYELVVHTDIDAAKVYMGEMGRLKSYENQKPPFDAKNPFLAAVTTNRKLNQGTERHLMHLELDISDSKIRYESGDHVAVYPANDSALVNQLGKILGADLDVVMSLNNLDEESNKKHPFPCPTSYRTALTYYLDITNPPRTNVLYELAQYASEPSEQELLRKMASSSGEGKELYLSWVVEARRHILAILQDCPSLRPPIDHLCELLPRLQARYYSIASSSKVHPNSVHICAVVVEYETKAGRINKGVATNWLRAKEPAGENGGRALVPMFVRKSQFRLPFKATTPVIMVGPGTGVAPFIGFIQERAWLRQQGKEVGETLLYYGCRRSDEDYLYREELAQFHRDGALTQLNVAFSREQSHKVYVQHLLKQDREHLWKLIEGGAHIYVCGDARNMARDVQNTFYDIVAELGAMEHAQAVDYIKKLMTKGRYSLDVWS
B1 gave a Km [5] of 1000 µM, a Vmax [5] of 3.4e-06 µmol/min and a Km [6] of 1500 µM. It also gave a Vmax [6] of 2e-07 µmol/min.
